Reference: the kinase profiling compilation of Christmann-Franck et al. (2016)

How the values were obtained:
Experiment in all cases: KINOMEscan competition binding
Conditions in all cases: compound 10.0 µM
AAK1 (human) = AAK1 (human) (UniProt Q2M2I8)
ABL2 (human) = ABL2 (human) (UniProt P42684)
ANKK1 (human) = ANKK1 (human) (UniProt Q8NFD2)
BMPR2 (human) = BMPR2 (human) (UniProt Q13873)
DDR2 (human) = DDR2 (human) (UniProt Q16832)
DMPK (human) = DMPK (human) (UniProt Q09013)
DYRK1B (human) = DYRK1B (human) (UniProt Q9Y463)
DYRK1B (human), sequence (Q9Y463 whole entry, looked up): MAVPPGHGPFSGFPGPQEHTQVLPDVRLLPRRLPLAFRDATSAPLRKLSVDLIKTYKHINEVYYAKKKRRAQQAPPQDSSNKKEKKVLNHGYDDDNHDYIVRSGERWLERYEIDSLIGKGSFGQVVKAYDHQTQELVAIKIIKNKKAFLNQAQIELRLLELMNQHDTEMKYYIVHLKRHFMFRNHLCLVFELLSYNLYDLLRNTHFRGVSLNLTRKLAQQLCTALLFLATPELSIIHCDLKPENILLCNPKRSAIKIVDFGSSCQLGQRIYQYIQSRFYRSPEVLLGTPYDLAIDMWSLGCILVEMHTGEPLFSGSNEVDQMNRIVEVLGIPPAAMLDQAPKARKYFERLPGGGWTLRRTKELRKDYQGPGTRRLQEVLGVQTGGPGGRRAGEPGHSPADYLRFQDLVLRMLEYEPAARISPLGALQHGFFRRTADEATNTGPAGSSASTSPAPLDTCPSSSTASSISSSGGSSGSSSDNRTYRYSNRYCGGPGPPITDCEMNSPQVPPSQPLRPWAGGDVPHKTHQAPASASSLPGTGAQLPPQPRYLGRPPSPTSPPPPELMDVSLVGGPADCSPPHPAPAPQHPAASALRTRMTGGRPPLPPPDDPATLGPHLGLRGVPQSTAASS

EPHA5 (human) = EPHA5 (human) (UniProt P54756)
FYN (human) = FYN (human) (UniProt P06241)
GRK7 (human) = GRK7 (human) (UniProt Q8WTQ7)
INSRR (human) = INSRR (human) (UniProt P14616)
IRAK1 (human) = IRAK1 (human) (UniProt P51617)
MAP2K3 (human) = MAP2K3 (human) (UniProt P46734)
MAP2K6 (human) = MAP2K6 (human) (UniProt P52564)
MAP3K10 (human) = MAP3K10 (human) (UniProt Q02779)
MAP3K5 (human) = MAP3K5 (human) (UniProt Q99683)
MAPK14 (human) = MAPK14 (human) (UniProt Q16539)
MAPK14 (human), sequence (Q16539 whole entry, looked up): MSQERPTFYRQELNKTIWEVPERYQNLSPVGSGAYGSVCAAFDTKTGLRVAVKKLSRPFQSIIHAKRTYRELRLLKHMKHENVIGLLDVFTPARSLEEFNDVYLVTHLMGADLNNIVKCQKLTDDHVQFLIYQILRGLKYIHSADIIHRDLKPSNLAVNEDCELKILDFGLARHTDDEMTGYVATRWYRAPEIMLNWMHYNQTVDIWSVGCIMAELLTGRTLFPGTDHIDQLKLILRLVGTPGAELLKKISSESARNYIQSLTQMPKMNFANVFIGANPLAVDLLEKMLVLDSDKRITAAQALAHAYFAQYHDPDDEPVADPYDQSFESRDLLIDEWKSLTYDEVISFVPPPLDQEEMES

MARK4 (human) = MARK4 (human) (UniProt Q96L34)
MATK (human) = MATK (human) (UniProt P42679)
MERTK (human) = MERTK (human) (UniProt Q12866)
MERTK (human), sequence (Q12866 whole entry, looked up): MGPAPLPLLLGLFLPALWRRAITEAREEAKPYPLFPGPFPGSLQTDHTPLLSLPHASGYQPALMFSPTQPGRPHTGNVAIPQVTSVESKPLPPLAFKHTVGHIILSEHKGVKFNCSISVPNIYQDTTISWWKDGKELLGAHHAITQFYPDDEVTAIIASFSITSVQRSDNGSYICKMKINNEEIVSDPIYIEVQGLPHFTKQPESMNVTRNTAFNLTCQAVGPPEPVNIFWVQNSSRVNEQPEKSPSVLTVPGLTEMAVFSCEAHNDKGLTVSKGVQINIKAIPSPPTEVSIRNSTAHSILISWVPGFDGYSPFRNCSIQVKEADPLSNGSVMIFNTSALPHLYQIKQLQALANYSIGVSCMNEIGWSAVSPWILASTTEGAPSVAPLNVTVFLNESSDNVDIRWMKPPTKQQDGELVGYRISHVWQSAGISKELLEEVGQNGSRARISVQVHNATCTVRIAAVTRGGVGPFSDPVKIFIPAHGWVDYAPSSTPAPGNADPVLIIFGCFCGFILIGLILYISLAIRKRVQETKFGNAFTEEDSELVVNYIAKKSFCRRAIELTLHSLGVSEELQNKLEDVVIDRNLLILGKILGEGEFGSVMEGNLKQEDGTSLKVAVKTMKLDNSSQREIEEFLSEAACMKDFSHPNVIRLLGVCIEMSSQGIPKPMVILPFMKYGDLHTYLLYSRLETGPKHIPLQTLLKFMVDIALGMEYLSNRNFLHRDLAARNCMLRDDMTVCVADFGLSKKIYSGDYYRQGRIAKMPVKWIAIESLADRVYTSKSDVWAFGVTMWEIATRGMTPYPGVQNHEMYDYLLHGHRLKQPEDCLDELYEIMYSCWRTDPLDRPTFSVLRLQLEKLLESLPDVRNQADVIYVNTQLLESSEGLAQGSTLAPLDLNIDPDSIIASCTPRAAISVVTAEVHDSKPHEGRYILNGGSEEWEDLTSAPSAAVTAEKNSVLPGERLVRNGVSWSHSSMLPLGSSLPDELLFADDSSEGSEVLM

MET (human) = MET (human) (UniProt P08581)
NEK2 (human) = NEK2 (human) (UniProt P51955)
NEK2 (human), sequence (P51955 whole entry, looked up): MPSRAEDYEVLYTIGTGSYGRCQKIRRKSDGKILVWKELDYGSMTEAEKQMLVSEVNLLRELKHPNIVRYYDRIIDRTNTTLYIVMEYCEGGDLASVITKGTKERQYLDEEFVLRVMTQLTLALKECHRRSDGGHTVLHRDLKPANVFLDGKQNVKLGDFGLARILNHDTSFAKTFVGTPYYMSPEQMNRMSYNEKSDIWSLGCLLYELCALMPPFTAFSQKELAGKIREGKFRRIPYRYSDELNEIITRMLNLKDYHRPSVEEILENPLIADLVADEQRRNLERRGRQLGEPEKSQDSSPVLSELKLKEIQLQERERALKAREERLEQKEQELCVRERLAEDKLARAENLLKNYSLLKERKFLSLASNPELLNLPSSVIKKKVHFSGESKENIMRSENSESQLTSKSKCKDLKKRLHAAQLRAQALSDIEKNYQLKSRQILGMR

[1] = tested on: PIK3CA (human), P42336 [E542K]
PIK3CD (human) = PIK3CD (human) (UniProt O00329)
PLK4 (human) = PLK4 (human) (UniProt O00444)
PRKD1 (human) = PRKD1 (human) (UniProt Q15139)
PRKD1 (human), sequence (Q15139 whole entry, looked up): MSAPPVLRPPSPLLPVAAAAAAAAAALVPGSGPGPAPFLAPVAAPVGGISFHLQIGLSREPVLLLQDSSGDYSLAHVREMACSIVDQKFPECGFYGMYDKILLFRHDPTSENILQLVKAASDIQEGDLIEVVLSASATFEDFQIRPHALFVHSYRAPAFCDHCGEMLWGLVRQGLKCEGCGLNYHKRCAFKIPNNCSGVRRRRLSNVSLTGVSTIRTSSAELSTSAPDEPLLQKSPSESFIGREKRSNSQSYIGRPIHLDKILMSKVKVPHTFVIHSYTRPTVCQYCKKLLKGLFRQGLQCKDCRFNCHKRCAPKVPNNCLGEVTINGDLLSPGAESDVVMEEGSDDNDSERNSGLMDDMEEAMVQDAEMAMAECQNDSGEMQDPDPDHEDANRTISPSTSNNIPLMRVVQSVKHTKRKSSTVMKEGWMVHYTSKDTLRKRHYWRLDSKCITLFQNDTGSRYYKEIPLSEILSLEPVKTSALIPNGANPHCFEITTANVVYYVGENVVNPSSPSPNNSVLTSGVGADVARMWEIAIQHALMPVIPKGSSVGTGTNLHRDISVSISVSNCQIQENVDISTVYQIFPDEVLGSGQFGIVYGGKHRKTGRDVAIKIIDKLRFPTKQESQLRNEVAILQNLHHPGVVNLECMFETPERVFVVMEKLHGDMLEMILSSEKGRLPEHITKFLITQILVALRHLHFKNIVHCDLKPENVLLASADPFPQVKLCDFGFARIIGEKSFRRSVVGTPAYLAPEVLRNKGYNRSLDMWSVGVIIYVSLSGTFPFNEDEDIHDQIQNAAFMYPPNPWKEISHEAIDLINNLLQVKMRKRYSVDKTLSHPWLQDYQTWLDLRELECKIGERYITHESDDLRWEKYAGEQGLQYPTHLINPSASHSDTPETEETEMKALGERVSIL

RIPK2 (human) = RIPK2 (human) (UniProt O43353)
RPS6KA6 KD2 (human) = RPS6KA6 KD2 (human) (UniProt Q9UK32)
RPS6KA6 KD2 (human), sequence (Q9UK32 whole entry, looked up): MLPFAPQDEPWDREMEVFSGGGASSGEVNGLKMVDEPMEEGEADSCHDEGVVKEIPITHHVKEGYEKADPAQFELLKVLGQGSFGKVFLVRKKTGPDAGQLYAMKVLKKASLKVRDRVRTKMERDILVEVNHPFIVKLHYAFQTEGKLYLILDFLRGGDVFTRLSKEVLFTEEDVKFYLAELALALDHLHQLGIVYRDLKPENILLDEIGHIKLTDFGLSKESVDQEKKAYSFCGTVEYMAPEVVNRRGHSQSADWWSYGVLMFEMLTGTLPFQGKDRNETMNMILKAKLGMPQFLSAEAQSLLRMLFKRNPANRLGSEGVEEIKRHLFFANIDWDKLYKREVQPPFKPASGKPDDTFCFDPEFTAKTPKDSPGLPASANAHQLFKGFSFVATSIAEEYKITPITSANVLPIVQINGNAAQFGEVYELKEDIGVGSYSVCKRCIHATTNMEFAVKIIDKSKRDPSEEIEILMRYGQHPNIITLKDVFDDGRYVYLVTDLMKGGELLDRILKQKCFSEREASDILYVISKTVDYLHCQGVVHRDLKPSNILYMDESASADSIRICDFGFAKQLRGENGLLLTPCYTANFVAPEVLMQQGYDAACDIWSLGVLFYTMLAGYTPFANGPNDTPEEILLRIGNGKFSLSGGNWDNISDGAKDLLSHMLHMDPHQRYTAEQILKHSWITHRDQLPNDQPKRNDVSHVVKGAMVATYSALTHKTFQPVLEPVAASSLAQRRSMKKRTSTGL

SBK1 (human) = SBK1 (human) (UniProt Q52WX2)
SRC (human) = SRC (human) (UniProt P12931)
SRMS (human) = SRMS (human) (UniProt Q9H3Y6)
SRMS (human), sequence (Q9H3Y6 whole entry, looked up): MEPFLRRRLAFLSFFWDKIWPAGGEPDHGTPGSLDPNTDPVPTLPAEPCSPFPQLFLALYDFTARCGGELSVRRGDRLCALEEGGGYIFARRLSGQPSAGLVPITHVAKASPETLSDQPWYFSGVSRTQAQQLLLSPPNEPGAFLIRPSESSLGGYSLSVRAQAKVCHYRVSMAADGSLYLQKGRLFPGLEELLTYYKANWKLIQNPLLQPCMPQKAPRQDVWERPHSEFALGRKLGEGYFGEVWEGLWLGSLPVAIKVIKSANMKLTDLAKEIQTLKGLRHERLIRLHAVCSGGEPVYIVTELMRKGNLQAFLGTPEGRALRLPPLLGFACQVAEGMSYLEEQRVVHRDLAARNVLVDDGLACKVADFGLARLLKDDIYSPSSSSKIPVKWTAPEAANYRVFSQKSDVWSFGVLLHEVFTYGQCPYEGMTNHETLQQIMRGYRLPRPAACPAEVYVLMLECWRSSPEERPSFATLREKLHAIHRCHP

STK32B (human) = STK32B (human) (UniProt Q9NY57)
STK32B (human), sequence (Q9NY57 whole entry, looked up): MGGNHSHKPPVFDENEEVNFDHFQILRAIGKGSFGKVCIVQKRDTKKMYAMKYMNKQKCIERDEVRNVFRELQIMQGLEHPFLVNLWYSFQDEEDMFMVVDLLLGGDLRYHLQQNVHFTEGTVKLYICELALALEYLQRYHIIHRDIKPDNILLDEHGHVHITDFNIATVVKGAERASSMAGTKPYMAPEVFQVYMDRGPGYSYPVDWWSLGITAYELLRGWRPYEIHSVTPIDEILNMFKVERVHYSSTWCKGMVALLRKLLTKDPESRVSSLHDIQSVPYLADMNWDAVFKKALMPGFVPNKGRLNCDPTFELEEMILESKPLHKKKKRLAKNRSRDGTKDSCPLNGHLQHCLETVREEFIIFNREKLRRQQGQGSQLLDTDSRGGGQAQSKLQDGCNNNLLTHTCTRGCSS

STK38L (human) = STK38L (human) (UniProt Q9Y2H1)
TAOK3 (human) = TAOK3 (human) (UniProt Q9H2K8)
TGFBR1 (human) = TGFBR1 (human) (UniProt P36897)
TLK2 (human) = TLK2 (human) (UniProt Q86UE8)
TNIK (human) = TNIK (human) (UniProt Q9UKE5)
TNNI3K (human) = TNNI3K (human) (UniProt Q59H18)
CASK (human) = CASK (human) (UniProt O14936)
TAOK2 (human) = TAOK2 (human) (UniProt Q9UL54)

| kinase still bound, per cent of control (AAK1 (human)) [%] | kinase still bound, per cent of control (ABL2 (human)) [%] | kinase still bound, per cent of control (ANKK1 (human)) [%] | kinase still bound, per cent of control (DDR2 (human)) [%] | kinase still bound, per cent of control (DMPK (human)) [%] | kinase still bound, per cent of control (DYRK1B (human)) [%] | kinase still bound, per cent of control (EPHA5 (human)) [%] | kinase still bound, per cent of control (FYN (human)) [%] | kinase still bound, per cent of control (INSRR (human)) [%] | kinase still bound, per cent of control (MAP2K3 (human)) [%] | kinase still bound, per cent of control (MAP2K6 (human)) [%] | kinase still bound, per cent of control (MAP3K10 (human)) [%] | kinase still bound, per cent of control (MARK4 (human)) [%] | kinase still bound, per cent of control (MERTK (human)) [%] | kinase still bound, per cent of control (MET (human)) [%] | kinase still bound, per cent of control (NEK2 (human)) [%] | kinase still bound, per cent of control (PIK3CD (human)) [%] | kinase still bound, per cent of control (PLK4 (human)) [%] | kinase still bound, per cent of control (PRKD1 (human)) [%] | kinase still bound, per cent of control (RPS6KA6 KD2 (human)) [%] | SMILES | further results |
| --- | --- | --- | --- | --- | --- | --- | --- | --- | --- | --- | --- | --- | --- | --- | --- | --- | --- | --- | --- | --- | --- |
| 100 | 1.8 | 100 | 15 | 100 | 100 | 17 | 9.6 | 100 | 100 | 100 | 100 | 100 | 100 | 100 | 100 | 100 | 100 | 100 | 100 | Cc1cn(-c2cc(C(=O)Nc3ccc(C)c(NC(=O)c4ccno4)c3)cc(C(F)(F)F)c2)cn1 | kinase still bound, per cent of control (BMPR2 (human)): 100%; kinase still bound, per cent of control (GRK7 (human)): 100%; kinase still bound, per cent of control (IRAK1 (human)): 100%; kinase still bound, per cent of control (MAP3K5 (human)): 100%; kinase still bound, per cent of control (MAPK14 (human)): 0.3%; kinase still bound, per cent of control (MATK (human)): 100%; kinase still bound, per cent of control [1]: 100%; kinase still bound, per cent of control (RIPK2 (human)): 100%; kinase still bound, per cent of control (SBK1 (human)): 100%; kinase still bound, per cent of control (SRC (human)): 2.4%; kinase still bound, per cent of control (SRMS (human)): 26%; kinase still bound, per cent of control (STK32B (human)): 100%; kinase still bound, per cent of control (STK38L (human)): 100%; kinase still bound, per cent of control (TAOK3 (human)): 100%; kinase still bound, per cent of control (TGFBR1 (human)): 100%; kinase still bound, per cent of control (TLK2 (human)): 100%; kinase still bound, per cent of control (TNIK (human)): 100%; kinase still bound, per cent of control (TNNI3K (human)): 29% |
| 100 | 100 | 100 | 100 | 100 | 100 | 100 | 100 | 100 | 100 | 100 | 100 | 100 | 100 | 100 | 100 | 100 | 2.8 | 100 | 31 | CCOc1cc(N2CCC(O)CC2)ccc1Nc1ncc2c(n1)N(C)c1ccccc1C(=O)N2C | kinase still bound, per cent of control (BMPR2 (human)): 100%; kinase still bound, per cent of control (GRK7 (human)): 100%; kinase still bound, per cent of control (IRAK1 (human)): 100%; kinase still bound, per cent of control (MAP3K5 (human)): 100%; kinase still bound, per cent of control (MAPK14 (human)): 100%; kinase still bound, per cent of control (MATK (human)): 100%; kinase still bound, per cent of control [1]: 100%; kinase still bound, per cent of control (RIPK2 (human)): 100%; kinase still bound, per cent of control (SBK1 (human)): 100%; kinase still bound, per cent of control (SRC (human)): 100%; kinase still bound, per cent of control (SRMS (human)): 100%; kinase still bound, per cent of control (STK32B (human)): 100%; kinase still bound, per cent of control (STK38L (human)): 100%; kinase still bound, per cent of control (TAOK3 (human)): 100%; kinase still bound, per cent of control (TGFBR1 (human)): 100%; kinase still bound, per cent of control (TLK2 (human)): 100%; kinase still bound, per cent of control (TNIK (human)): 100%; kinase still bound, per cent of control (TNNI3K (human)): 100% |
| 100 | 100 | 100 | 100 | 100 | 100 | 100 | 100 | 1.2 | 23 | 100 | 100 | 100 | 32 | 100 | 100 | 100 | 2.8 | 100 | 9 | COc1cc(N2CCC(C(N)=O)CC2)ccc1Nc1nc(N)c(Cl)c(Nc2ccccc2S(=O)(=O)C(C)C)n1 | kinase still bound, per cent of control (BMPR2 (human)): 100%; kinase still bound, per cent of control (MAP3K5 (human)): 100%; kinase still bound, per cent of control (MAPK14 (human)): 100%; kinase still bound, per cent of control (RIPK2 (human)): 100%; kinase still bound, per cent of control (SRC (human)): 23%; kinase still bound, per cent of control (SRMS (human)): 7.3%; kinase still bound, per cent of control (STK32B (human)): 3.7%; kinase still bound, per cent of control (STK38L (human)): 100%; kinase still bound, per cent of control (TAOK3 (human)): 100%; kinase still bound, per cent of control (TGFBR1 (human)): 100%; kinase still bound, per cent of control (TLK2 (human)): 100%; kinase still bound, per cent of control (TNIK (human)): 100%; kinase still bound, per cent of control (TNNI3K (human)): 100% |

| SMILES | kinase still bound, per cent of control (AAK1 (human)) [%] | kinase still bound, per cent of control (ABL2 (human)) [%] | kinase still bound, per cent of control (ANKK1 (human)) [%] | kinase still bound, per cent of control (DDR2 (human)) [%] | kinase still bound, per cent of control (DMPK (human)) [%] | kinase still bound, per cent of control (DYRK1B (human)) [%] | kinase still bound, per cent of control (EPHA5 (human)) [%] | kinase still bound, per cent of control (FYN (human)) [%] | kinase still bound, per cent of control (INSRR (human)) [%] | kinase still bound, per cent of control (MAP2K3 (human)) [%] | kinase still bound, per cent of control (MAP2K6 (human)) [%] | kinase still bound, per cent of control (MAP3K10 (human)) [%] | kinase still bound, per cent of control (MARK4 (human)) [%] | kinase still bound, per cent of control (MERTK (human)) [%] | kinase still bound, per cent of control (MET (human)) [%] | kinase still bound, per cent of control (NEK2 (human)) [%] | kinase still bound, per cent of control (PIK3CD (human)) [%] | kinase still bound, per cent of control (PLK4 (human)) [%] | kinase still bound, per cent of control (PRKD1 (human)) [%] | kinase still bound, per cent of control (RPS6KA6 KD2 (human)) [%] | further results |
| --- | --- | --- | --- | --- | --- | --- | --- | --- | --- | --- | --- | --- | --- | --- | --- | --- | --- | --- | --- | --- | --- |
| CC(=O)c1c(C)c2cnc(Nc3ccc(N4CCNCC4)cn3)nc2n(C2CCCC2)c1=O | 11 | 97 | 79 | 56 | 80 | 3.2 | 98 | 100 | 98 | 19 | 45 | 93 | 63 | 39 | 36 | 31 | 28 | 3.2 | 0.85 | 38 | kinase still bound, per cent of control (CASK (human)): 60%; kinase still bound, per cent of control (GRK7 (human)): 13%; kinase still bound, per cent of control (IRAK1 (human)): 0.85%; kinase still bound, per cent of control (MATK (human)): 46%; kinase still bound, per cent of control (SBK1 (human)): 36%; kinase still bound, per cent of control (SRC (human)): 93%; kinase still bound, per cent of control (SRMS (human)): 49%; kinase still bound, per cent of control (TAOK2 (human)): 30%; kinase still bound, per cent of control (TAOK3 (human)): 8.1%; kinase still bound, per cent of control (TLK2 (human)): 89%; kinase still bound, per cent of control (TNIK (human)): 23%; kinase still bound, per cent of control (TNNI3K (human)): 98% |
